Test results published in the supplement of paper PMC10307832.

Columns and labels:
Assay in all cases: relative viability (nuclei count vs DMSO), 5 days (fraction); higher = more cells survive
[1] = compound: O=C(Nc1cccc(C(F)(F)F)c1)Nc1cc(S(=O)(=O)NC2CC2)ccc1-c1ccsc1 [AGI-6780] + Cc1nc(NC(=O)N2CCC[C@H]2C(N)=O)sc1-c1ccnc(C(C)(C)C(F)(F)F)c1 [Alpelisib] (partner 2 µM)
In short: (§1)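 Relative viability was taken as the ratio of nuclei in treated wells to nuclei in vehicle wells. Lung cancer cell lines in 1536-well plates received compounds by pin tool one day after seeding, either one drug alone or a fixed anchor-drug dose plus five library-drug doses (not always all listed) in √10 steps. Nuclei were counted on 4× images after 5 days of treatment, and values are medians of duplicate plates.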

[2] = compound: O=C(Nc1cccc(C(F)(F)F)c1)Nc1cc(S(=O)(=O)NC2CC2)ccc1-c1ccsc1 [AGI-6780] + COc1cccc2cc(-c3nc([C@H]4CC[C@H](C(=O)O)CC4)n4ncnc(N)c34)[nH]c12 [OSI-027] (partner 0.5 µM)
In short: as §1

[3] = compound: O=C(Nc1cccc(C(F)(F)F)c1)Nc1cc(S(=O)(=O)NC2CC2)ccc1-c1ccsc1 [AGI-6780] + CS(=O)(=O)CCNCc1ccc(-c2ccc3ncnc(Nc4ccc(OCc5cccc(F)c5)c(Cl)c4)c3c2)o1 [Lapatinib] (partner 2 µM)
In short: as §1

[4] = compound: O=C(Nc1cccc(C(F)(F)F)c1)Nc1cc(S(=O)(=O)NC2CC2)ccc1-c1ccsc1 [AGI-6780] + C[C@]1(O)C[C@@H](c2nc(-c3ccc4ccc(-c5ccccc5)nc4c3)c3c(N)nccn32)C1 [Linsitinib] (partner 1 µM)
In short: as §1

Cell Line	relative viability ([1]; first compound 0.08 µM)	relative viability ([1]; first compound 0.253 µM)	relative viability ([1]; first compound 0.8 µM)	relative viability ([1]; first compound 2.53 µM)	relative viability ([1]; first compound 8 µM)	relative viability ([2]; first compound 0.08 µM)	relative viability ([2]; first compound 0.253 µM)	relative viability ([2]; first compound 0.8 µM)	relative viability ([2]; first compound 2.53 µM)	relative viability ([2]; first compound 8 µM)	relative viability ([3]; first compound 0.08 µM)	relative viability ([3]; first compound 0.253 µM)	relative viability ([3]; first compound 0.8 µM)	relative viability ([3]; first compound 2.53 µM)	relative viability ([3]; first compound 8 µM)	relative viability ([4]; first compound 0.08 µM)	relative viability ([4]; first compound 0.253 µM)	relative viability ([4]; first compound 0.8 µM)	relative viability ([4]; first compound 2.53 µM)	relative viability ([4]; first compound 8 µM)
LU99A	0.528	0.524	0.516	0.518	0.558	0.339	0.304	0.28	0.255	0.31	1.12	0.98	0.976	0.825	1.03	0.581	0.57	0.54	0.498	0.565
LXF-289	1.03	1.04	1.07	1.09	1.03	0.862	0.843	0.844	0.666	0.921	0.903	0.897	0.906	0.936	0.831	0.952	1.01	1.01	1.01	0.897
NCI-H23	0.971	0.745	0.811	0.473	0.791	0.705	0.623	0.747	0.346	0.672	1.17	1.26	1.45	0.931	1.15	0.622	0.582	0.693	0.39	0.672
NCI-H441	0.885	0.783	0.713	0.382	0.646	0.78	0.922	0.599	0.54	0.504						0.498	0.528	0.461	0.424	0.459
NCI-H522						0.782	0.724	0.804	0.564	0.751										
NCI-H1299	1.02	1.04	0.971	1.09	1.02						1.01	0.978	0.925	0.929	0.968	1.01	0.987	0.941	1.05	1.04
NCI-H1648						0.26	0.292	0.258	0.277	0.242										
NCI-H1650						0.641	0.597	0.856	0.552	0.638	0.739	0.777	1.16	0.789	0.874					
NCI-H1703	0.377	0.278	0.424	0.344	0.251						1.11	0.87	1.82	1.13	0.93	1.18	0.978	0.736	0.559	0.166
NCI-H2170	0.813	0.838	0.86		0.772	0.694	0.762	0.768	0.596	0.733	0.291	0.281	0.272		0.257					
NCI-H2342						0.63	0.721	0.58	0.57	0.662										
SW 900						0.649	0.684	0.811	0.415	0.741										
